Source: patent US12637471B2, “Heterocyclic compounds, compositions, methods of preparation and uses thereof” (Organon R&D Finland Ltd, priority 2021, dated 2026)

Assays:
Format in all cases: biochemical
[1] = molecular target: T1, Recombinant human AKR1C3 (17β-HSD5) protein (Homo sapiens, UniProt P42330); assay: Inhibition of AKR1C3 (17β-hydroxysteroid dehydrogenase type 5) enzyme, fluorescence assay; conditions: inhibitor at 500 nM
T1 construct: made in house; host or cells: E. coli
T1 sequence (P42330 1-323): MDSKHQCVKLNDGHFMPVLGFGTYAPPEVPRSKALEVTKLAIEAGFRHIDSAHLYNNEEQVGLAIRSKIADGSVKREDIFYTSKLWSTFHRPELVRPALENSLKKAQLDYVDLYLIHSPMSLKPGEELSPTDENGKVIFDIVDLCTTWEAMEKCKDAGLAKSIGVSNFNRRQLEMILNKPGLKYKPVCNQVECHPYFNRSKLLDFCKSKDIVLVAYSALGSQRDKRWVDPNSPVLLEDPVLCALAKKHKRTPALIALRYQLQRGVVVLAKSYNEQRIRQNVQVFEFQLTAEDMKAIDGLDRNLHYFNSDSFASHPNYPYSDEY
Method: Inhibition of AKR1C3 (17β-Hydroxysteroid Dehydrogenase Type 5) Enzyme
Recombinant human AKR1C3 (17β-HSD5) protein (GenBank Accession No. NM_003739.6) produced in E. coli was used for screening. Recombinant protein (27 nM/1 μg/ml) was incubated in 20 mM KH2PO4, 1 mM EDTA, complete protease inhibitor cocktail, pH 7.4 with 1 μM 9-acetyl-2,3,6,7-tetrahydro-1H,5H,11H-pyrano[2,3-f]pyrido[3,2,1-ij]quinolin-11-one and 1 mM NADPH for 60 to 120 min at RT, in the presence of the potential inhibitor at 500 nM concentration. Inhibitor stock solutions were prepared in DMSO. Final concentration of DMSO was adjusted to 1% in all samples. The samples were analysed by fluorescent measurement with Tecan Spark microplate reader at wavelengths 420 nm for excitation and 510 nm for emission. Samples were evaluated against standards of 9-(1-hydroxyethyl)-2,3,6,7-tetrahydro-1H,5H,11H-pyrano[2,3-f]pyrido[3,2,1-ij]quinolin-11-one at concentrations 1 μM-10 nM. Background fluorescence was reduced from all the samples and standards. The concentrations of formed product were calculated from the standard curve with Tecan Spark Magellan software. The formed product concentrations were used to calculate conversion percentages. The inhibition percentages for the samples were calculated from the conversion percentages.
Inhibition percentages of samples were calculated using following formula: […]

[2] = molecular target: T2, Recombinant human aldo-keto reductase family 1 member C2 (AKR1C2) protein (Homo sapiens, UniProt P52895); assay: Inhibition of the aldo-keto reductase family 1 member C2, 3H-dihydrotestosterone conversion; conditions: inhibitor at 10 μM
T2 construct: made in house; host or cells: Sf-9 insect cells (baculovirus)
T2 sequence (P52895 1-323): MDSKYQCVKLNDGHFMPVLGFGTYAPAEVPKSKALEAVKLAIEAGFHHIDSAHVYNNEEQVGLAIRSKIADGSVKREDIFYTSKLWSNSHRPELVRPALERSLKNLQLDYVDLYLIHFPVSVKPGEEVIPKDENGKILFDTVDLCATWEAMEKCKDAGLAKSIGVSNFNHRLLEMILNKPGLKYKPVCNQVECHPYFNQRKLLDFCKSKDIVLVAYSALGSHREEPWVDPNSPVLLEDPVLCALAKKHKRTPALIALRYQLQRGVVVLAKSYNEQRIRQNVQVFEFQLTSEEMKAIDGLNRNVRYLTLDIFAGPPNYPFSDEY
Method: Inhibition of the Aldo-Keto Reductase Family 1 Member C2
Recombinant human aldo-keto reductase family 1 member C2 (AKR1C2) protein (GenBank Accession No. NM_001354.6) produced in Sf-9 insect cells with baculovirus was used for screening. Recombinant protein (13.6 nM/0.5 μg/ml) was incubated in 20 mM KH2PO4 pH 7.4, 1 mM EDTA, complete protease inhibitor tablet, 1 mM NADPH with 6.25 nM ^3H-labelled dihydrotestosterone for 45 min at +37° C., in the presence of the potential inhibitor at 10 μM concentration. Inhibitor stock solutions were prepared in DMSO. Final concentration of DMSO was adjusted to 1% in all samples. The enzyme reaction was stopped by addition of 10% trichloroacetic acid (final concentration 1%). Samples were filtrated through […] filtration plate (Merck). Analyses of samples was done with Waters Acquity UPLC H-class equipped with XBridge C18 column and XBridge VanGuard C18 guard column. Acetonitrile: 0.1% formic acid in water (42/58 v/v) with flow of 1.2 ml/min was used for mobile phase. The eluent was mixed with scintillant and the radioactivity was monitored in the eluate by a Scintillation Analyser. The conversion percentage of triated substrate (dihydrotestosterone) to tritiated product (5α-androstane-3α,17β-diol) for each sample was determined by the relative percentages of substrate and product in the chromatogram. The inhibition percentages of samples were calculated using following formula: […]

[3] = molecular target: T3, 17β-Hydroxysteroid Dehydrogenase Type 2 Enzyme (17β-HSD2) (Homo sapiens, UniProt P37059); assay: Inhibition of the 17β-hydroxysteroid dehydrogenase type 2 enzyme, 3H-testosterone conversion; conditions: inhibitor at 10 μM
T3 construct: made in house; host or cells: Sf-9 insect cells (baculovirus)
T3 sequence (P37059 1-387): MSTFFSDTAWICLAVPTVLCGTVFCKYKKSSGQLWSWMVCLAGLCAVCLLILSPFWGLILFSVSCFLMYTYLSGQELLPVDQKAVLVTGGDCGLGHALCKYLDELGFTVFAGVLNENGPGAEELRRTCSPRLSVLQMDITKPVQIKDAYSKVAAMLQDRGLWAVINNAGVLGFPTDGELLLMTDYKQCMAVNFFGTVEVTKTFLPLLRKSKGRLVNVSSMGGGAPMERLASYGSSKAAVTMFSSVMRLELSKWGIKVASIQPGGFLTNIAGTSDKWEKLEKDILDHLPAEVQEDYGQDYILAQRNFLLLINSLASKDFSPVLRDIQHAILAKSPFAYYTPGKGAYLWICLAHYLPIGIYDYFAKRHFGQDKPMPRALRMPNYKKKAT
Method: Inhibition of the 17β-Hydroxysteroid Dehydrogenase Type 2 Enzyme
Recombinant human 173-HSD2 protein (GenBank Accession No. NM_002153.3) produced in Sf-9 insect cells with baculovirus was used for screening.
Recombinant protein (105 nM/4.5 μg/ml) was incubated in 20 mM KH2PO4 pH 8.5, 1 mM EDTA, complete protease inhibitor cocktail, 1 mM NAD with 56.25 nM testosterone (including ^3H-labelled testosterone) for 30 min at RT, in the presence of the potential inhibitor at 10 μM concentration. Inhibitor stock solutions were prepared in DMSO. Final concentration of DMSO was adjusted to 1% in all samples. The enzyme reaction was stopped by addition of 10% trichloroacetic acid (final concentration 1%). Samples were filtrated through […] filtration plate. Analyses of samples was done with Waters Acquity UPLC H-class equipped with XBridge C18 column and XBridge VanGuard C18 guard column. Acetonitrile: 0.1% formic acid in water (42/58 v/v) with flow of 1.2 ml/min was used for mobile phase. The eluent was mixed with scintillant and the radioactivity was monitored in the eluate by a Scintillation Analyser. The conversion percentage of tritiated substrate (testosterone) to product tritiated (androstenedione) for each sample was determined by the relative percentages of substrate and product in the chromatogram. The inhibition percentages of samples were calculated using following formula: […]

| SMILES | inhibition at 0.5 µM [1] | inhibition at 10 µM [2] | inhibition at 10 µM [3] |
| --- | --- | --- | --- |
| N#CC(=C1CCN(C(=O)N2C[C@@H]3CC[C@@H]2C3)CC1)c1ccc(F)cc1 [Compound 29, 2-(1-((1R,4R)-2-azabicyclo[2.2.1]heptane-2-carbonyl)piperidin-4-ylidene)-2-(4-fluorophenyl)acetonitrile] | 96% | 5% | 30% |
| N#CC(=C1CCN(C(=O)N2CC3CCCC3C2)CC1)c1ccc(F)cc1 (stereo not drawn) [Compound 101, 2-(4-fluorophenyl)-2-(1-(octahydrocyclopenta[c]pyrrole-2-carbonyl)piperidin-4-ylidene)acetonitrile] | 90% | 11% | 14% |
| N#CC(=C1CCN(C(=O)N2CCC(CCCO)CC2)CC1)c1ccc(Cl)cc1 [Compound 132, 2-(4-chlorophenyl)-2-(1-(4-(3-hydroxypropyl)piperidine-1-carbonyl)piperidin-4-ylidene)acetonitrile] | 95% | 8% | 17% |
| CN(C(=O)N1CCC(=C(C#N)c2ccc(F)cc2)CC1)C1CCOCC1 [Compound 14, 4-(cyano(4-fluorophenyl)methylene)-N-methyl-N-(tetrahydro-2H-pyran-4-yl)piperidine-1-carboxamide] | 94% | 11% | 3% |
| N#CC(=C1CCN(C(=O)N2C[C@@H]3CC[C@@H]2C3)CC1)c1ccc(F)cc1F [Compound 111, 2-(1-((1R,4R)-2-azabicyclo[2.2.1]heptane-2-carbonyl)piperidin-4-ylidene)-2-(2,4-difluorophenyl)acetonitrile] | 95% | 13% | 8% |
| N#CC(=C1CCN(C(=O)N2CCC(S(N)(=O)=O)CC2)CC1)c1ccc(Cl)cc1 [Compound 126, 1-(4-((4-chlorophenyl)(cyano)methylene)piperidine-1-carbonyl)piperidine-4-sulfonamide] | 97% | 10% | 2% |
| N#CC(=C1CCN(C(=O)N2C3CCC2COC3)CC1)c1ccc(F)c(F)c1 [Compound 31, 2-(1-(3-oxa-8-azabicyclo[3.2.1]octane-8-carbonyl)piperidin-4-ylidene)-2-(3,4-difluorophenyl)acetonitrile] | 95% | 11% | 9% |

Now from value to molecule:

| inhibition at 0.5 µM [1] | inhibition at 10 µM [2] | inhibition at 10 µM [3] | SMILES |
| --- | --- | --- | --- |
| 98% | 9% | 29% | N#CC(=C1CCN(C(=O)N2CCc3[nH]ncc3C2)CC1)c1cccc2[nH]ncc12 [Compound 60, 2-(1H-indazol-4-yl)-2-(1-(4,5,6,7-tetrahydro-1H-pyrazolo[4,3-c]pyridine-5-carbonyl)piperidin-4-ylidene)acetonitrile] |
| 99% | 7% | 30% | N#CC(=C1CCN(C(=O)N2CCn3cncc3C2)CC1)c1cccc2[nH]ncc12 [Compound 61, 2-(1H-indazol-4-yl)-2-(1-(5,6,7,8-tetrahydroimidazo[1,5-a]pyrazine-7-carbonyl)piperidin-4-ylidene)acetonitrile] |
| 97% | 1% | 9% | N#CC(=C1CCN(C(=O)N2CCC(C(F)(F)F)CC2)CC1)c1cccc2[nH]ncc12 [Compound 145, 2-(1H-indazol-4-yl)-2-(1-(4-(trifluoromethyl)piperidine-1-carbonyl)piperidin-4-ylidene) acetonitrile] |
| 96% | 14% | 30% | Cn1ncc2cccc(C(C#N)=C3CCN(C(=O)N4CCC(CO)CC4)CC3)c21 [Compound 118, 2-(1-(4-(hydroxymethyl)piperidine-1-carbonyl)piperidin-4-ylidene)-2-(1-methyl-1H-indazol-7-yl)acetonitrile] |
| 103% | 5% | 2% | N#CC(=C1CCN(C(=O)N2CCOCC2)CC1)c1cccc2[nH]ncc12 [Compound 45, 2-(1H-indazol-4-yl)-2-(1-(morpholine-4-carbonyl)piperidin-4-ylidene)acetonitrile] |
| 98% | 9% | 26% | N#CC(=C1CCN(C(=O)N2CCn3cncc3C2)CC1)c1cccc2cn[nH]c12 [Compound 72, 2-(1H-indazol-7-yl)-2-(1-(5,6,7,8-tetrahydroimidazo[1,5-a]pyrazine-7-carbonyl)piperidin-4-ylidene)acetonitrile] |
| 95% | 9% | 6% | N#CC(=C1CCN(C(=O)N2CCn3ncnc3C2)CC1)c1ccc(Cl)cn1 [Compound 165, 2-(5-chloropyridin-2-yl)-2-(1-(5,6,7,8-tetrahydro-[1,2,4]triazolo[1,5-a]pyrazine-7-carbonyl)piperidin-4-ylidene)acetonitrile] |
| 97% | 8% | 27% | N#CC(=C1CCN(C(=O)N2CCn3cccc3C2)CC1)c1ccc(F)cc1 [Compound 28, 2-(4-fluorophenyl)-2-(1-(1,2,3,4-tetrahydropyrrolo[1,2-a]pyrazine-2-carbonyl)piperidin-4-ylidene)acetonitrile] |
| 99% | 2% | 8% | N#CC(=C1CCN(C(=O)N2CCn3ncnc3C2)CC1)c1cccc(Cl)c1 [Compound 157, 2-(3-chlorophenyl)-2-(1-(5,6,7,8-tetrahydro-[1,2,4]triazolo[1,5-a]pyrazine-7-carbonyl)piperidin-4-ylidene)acetonitrile] |
